The values below come from patent US11325889B2, “Substituted 3-((3-aminophenyl)amino)piperidine-2,6-dione compounds, compositions thereof, and methods of treatment therewith” (Celgene Corporation, priority 2018, dated 2022).

The target in this assay is T1, AR protein in VCaP cells (Homo sapiens, UniProt P10275).
T1 construct: endogenous in cells; host or cells: VCaP cells
T1 sequence (P10275 1-920): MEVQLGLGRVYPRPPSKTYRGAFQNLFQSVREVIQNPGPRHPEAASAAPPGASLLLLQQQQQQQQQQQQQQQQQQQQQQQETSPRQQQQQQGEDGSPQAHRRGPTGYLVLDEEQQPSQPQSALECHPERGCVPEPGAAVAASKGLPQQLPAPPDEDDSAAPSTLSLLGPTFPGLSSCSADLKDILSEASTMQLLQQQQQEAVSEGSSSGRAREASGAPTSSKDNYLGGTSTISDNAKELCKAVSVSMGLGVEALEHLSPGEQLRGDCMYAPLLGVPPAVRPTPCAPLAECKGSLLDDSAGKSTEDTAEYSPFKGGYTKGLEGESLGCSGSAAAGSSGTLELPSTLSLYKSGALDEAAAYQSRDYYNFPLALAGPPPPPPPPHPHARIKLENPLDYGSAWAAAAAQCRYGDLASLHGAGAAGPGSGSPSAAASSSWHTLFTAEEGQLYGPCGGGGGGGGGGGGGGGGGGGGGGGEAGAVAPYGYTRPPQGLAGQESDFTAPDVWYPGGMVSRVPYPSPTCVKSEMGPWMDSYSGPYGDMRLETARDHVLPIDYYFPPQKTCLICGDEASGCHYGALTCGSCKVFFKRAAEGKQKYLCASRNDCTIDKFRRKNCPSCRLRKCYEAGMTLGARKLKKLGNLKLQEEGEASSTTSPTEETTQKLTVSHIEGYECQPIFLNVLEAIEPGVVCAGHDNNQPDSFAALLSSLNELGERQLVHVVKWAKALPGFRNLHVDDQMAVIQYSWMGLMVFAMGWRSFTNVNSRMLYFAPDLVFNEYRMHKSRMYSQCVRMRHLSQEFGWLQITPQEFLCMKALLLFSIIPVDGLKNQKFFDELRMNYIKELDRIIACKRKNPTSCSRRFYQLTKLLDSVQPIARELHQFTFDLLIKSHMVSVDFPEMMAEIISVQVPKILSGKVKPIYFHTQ
As to the kind of experiment: VCAP AR Degradation Assay (AR ELISA, 24 h). Format: cell-based. The following applies: for Y (lowest measured AR level normalized to DMSO control): AR degradation efficiency; for DC50: concentration of compound when AR level = 50% of DMSO control. Summed up:
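VCaP cells in DMEM with 8% FBS exposed for 24 h at 37° C to a 10-point, 1:3 series (final top concentration […]; 0.1% DMSO control). Lysate AR measured by sandwich ELISA and normalized to DMSO as percent of control. DC50, EC50 and lowest AR level (Y) from four-parameter logistic fit.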

Read-outs that look alike come from different tables or passages of the source.

Turning to `CCc1cc(N2C(=S)N(c3cnc(C#N)c(C(F)(F)F)c3)C(=O)C2(C)C)ccc1OCC[C@@H]1C[C@H]2CC[C@@H](C1)N2CC(=O)Nc1cccc(NC2CCC(=O)NC2=O)c1` (stereo partly drawn) [Cmpd 66, 2-((1R,3s,5S)-3-(2-(4-(3-(6-cyano-5-(trifluoromethyl)pyridin-3-yl)-5,5-dimethyl-4-oxo-2-thioxoimidazolidin-1-yl)-2-ethylphenoxy)ethyl)-8-azabicyclo[3.2.1]octan-8-yl)-N-(3-(2,6-dioxopiperidin-3-ylamino)phenyl)acetamide], the “Y (lowest measured AR level normalized to DMSO control)” value is recorded as “* (0<Y<=25%)” and the DC50 is below 100 nM.

For the compound `CCc1cc(N2C(=S)N(c3cnc(C#N)c(C(F)(F)F)c3)C(=O)C23CCC3)ccc1OCC[C@@H]1C[C@H]2CC[C@@H](C1)N2CC(=O)Nc1cccc(NC2CCC(=O)NC2=O)c1` (stereo partly drawn) [Cmpd 68, 2-((1R,3s,5S)-3-(2-(4-(7-(6-cyano-5-(trifluoromethyl)pyridin-3-yl)-8-oxo-6-thioxo-5,7-diazaspiro[3.4]octan-5-yl)-2-ethylphenoxy)ethyl)-8-azabicyclo[3.2.1]octan-8-yl)-N-(3-(2,6-dioxopiperidin-3-ylamino)phenyl)acetamide], the “Y (lowest measured AR level normalized to DMSO control)” value is recorded as “* (0<Y<=25%)” and the DC50 was below 100 nM.

Turning to `CCc1cc(N2C(=S)N(c3cnc(C#N)c(C(F)(F)F)c3)C(=O)C23CCC3)ccc1OCCC1C[C@H]2CC[C@@H](C1)N2CC(=O)Nc1cc(Cl)cc(NC2CCC(=O)NC2=O)c1` (stereo partly drawn) [Cmpd 69, N-(3-chloro-5-(2,6-dioxopiperidin-3-ylamino)phenyl)-2-((1R,5S)-3-(2-(4-(7-(6-cyano-5-(trifluoromethyl)pyridin-3-yl)-8-oxo-6-thioxo-5,7-diazaspiro[3.4]octan-5-yl)-2-ethylphenoxy)ethyl)-8-azabicyclo[3.2.1]octan-8-yl)acetamide], the “Y (lowest measured AR level normalized to DMSO control)” value is listed as “** (25%<Y<=35%)” and the DC50 was 100 to 500 nM.

Take `CCc1cc(N2C(=S)N(c3ccc(C#N)c(C(F)(F)F)c3)C(=O)C2(C)C)ccc1OCC[C@H]1CCN(CC(=O)Nc2cccc(NC3CCC(=O)NC3=O)c2)[C@H](C)C1` (stereo partly drawn) [Cmpd 70, 2-((2R,4S)-4-(2-(4-(3-(4-cyano-3-(trifluoromethyl)phenyl)-5,5-dimethyl-4-oxo-2-thioxoimidazolidin-1-yl)-2-ethylphenoxy)ethyl)-2-methylpiperidin-1-yl)-N-(3-(2,6-dioxopiperidin-3-ylamino)phenyl)acetamide]: the “Y (lowest measured AR level normalized to DMSO control)” value was “* (0<Y<=25%)”. Also, under “read-out: DC50”, the DC50 was below 100 nM.

As to `CCc1cc(N2C(=S)N(c3ccc(C#N)c(C(F)(F)F)c3)C(=O)C2(C)C)ccc1OCC[C@@H]1CCN(CC(=O)Nc2cccc(NC3CCC(=O)NC3=O)c2)[C@H](C)C1` (stereo partly drawn) [Cmpd 71, 2-((2R,4R)-4-(2-(4-(3-(4-cyano-3-(trifluoromethyl)phenyl)-5,5-dimethyl-4-oxo-2-thioxoimidazolidin-1-yl)-2-ethylphenoxy)ethyl)-2-methylpiperidin-1-yl)-N-(3-(2,6-dioxopiperidin-3-ylamino)phenyl)acetamide], the “Y (lowest measured AR level normalized to DMSO control)” value was “* (0<Y<=25%)”. Further, the DC50 (read-out: DC50) was below 100 nM.

On to `C[C@H](C(=O)Nc1cccc(NC2CCC(=O)NC2=O)c1)N1CCC(CCOc2ccc(N3C(=S)N(c4cnc(C#N)c(C(F)(F)F)c4)C(=O)C3(C)C)cc2CCF)CC1` (stereo partly drawn) [Cmpd 72, (2R)-2-(4-(2-(4-(3-(6-cyano-5-(trifluoromethyl)pyridin-3-yl)-5,5-dimethyl-4-oxo-2-thioxoimidazolidin-1-yl)-2-(2-fluoroethyl)phenoxy)ethyl)piperidin-1-yl)-N-(3-(2,6-dioxopiperidin-3-ylamino)phenyl)propanamide], for which the “Y (lowest measured AR level normalized to DMSO control)” value was “* (0<Y<=25%)”. The DC50 (read-out: DC50) was below 100 nM.

As to `C[C@@H](C(=O)Nc1cccc(NC2CCC(=O)NC2=O)c1)N1CCC(CCOc2ccc(N3C(=S)N(c4cnc(C#N)c(C(F)(F)F)c4)C(=O)C3(C)C)cc2CCF)CC1` (stereo partly drawn) [Cmpd 73, (2S)-2-(4-(2-(4-(3-(6-cyano-5-(trifluoromethyl)pyridin-3-yl)-5,5-dimethyl-4-oxo-2-thioxoimidazolidin-1-yl)-2-(2-fluoroethyl)phenoxy)ethyl)piperidin-1-yl)-N-(3-(2,6-dioxopiperidin-3-ylamino)phenyl)propanamide], the “Y (lowest measured AR level normalized to DMSO control)” value is recorded as “* (0<Y<=25%)”. Moreover, the DC50 (read-out: DC50) is below 100 nM.

Regarding `CCc1cc(N2C(=S)N(c3ccc(C#N)c(C(F)(F)F)c3)C(=O)C23CCC3)ccc1OCCC1CCN([C@@H](C)C(=O)Nc2cc(NC3CCC(=O)NC3=O)ccc2F)CC1` (stereo partly drawn) [Cmpd 74, (2S)-2-(4-(2-(4-(7-(4-cyano-3-(trifluoromethyl)phenyl)-8-oxo-6-thioxo-5,7-diazaspiro[3.4]octan-5-yl)-2-ethylphenoxy)ethyl)piperidin-1-yl)-N-(5-(2,6-dioxopiperidin-3-ylamino)-2-fluorophenyl)propanamide], the “Y (lowest measured AR level normalized to DMSO control)” value is recorded as “** (25%<Y<=35%)”. Also, the half-maximal degradation concentration (DC50) (read-out: DC50) lay within 100 to 500 nM.

`CCc1cc(N2C(=S)N(c3ccc(C#N)c(C(F)(F)F)c3)C(=O)C23CCC3)ccc1OCCC1CCN([C@H](C)C(=O)Nc2cc(NC3CCC(=O)NC3=O)ccc2F)CC1` (stereo partly drawn) [Cmpd 75, (2R)-2-(4-(2-(4-(7-(4-cyano-3-(trifluoromethyl)phenyl)-8-oxo-6-thioxo-5,7-diazaspiro[3.4]octan-5-yl)-2-ethylphenoxy)ethyl)piperidin-1-yl)-N-(5-(2,6-dioxopiperidin-3-ylamino)-2-fluorophenyl)propanamide]: the “Y (lowest measured AR level normalized to DMSO control)” value is “** (25%<Y<=35%)”. Further, the DC50 (read-out: DC50) lay in the range of 100 to 500 nM.

On to `CCc1cc(N2C(=S)N(c3cnc(C#N)c(C(F)(F)F)c3)C(=O)C2(C)C)ccc1OCC[C@H]1CCN(CC(=O)Nc2cccc(NC3CCC(=O)NC3=O)c2)[C@H](C)C1` (stereo partly drawn) [Cmpd 76, 2-((2R,4S)-4-(2-(4-(3-(6-cyano-5-(trifluoromethyl)pyridin-3-yl)-5,5-dimethyl-4-oxo-2-thioxoimidazolidin-1-yl)-2-ethylphenoxy)ethyl)-2-methylpiperidin-1-yl)-N-(3-(2,6-dioxopiperidin-3-ylamino)phenyl)acetamide], for which the “Y (lowest measured AR level normalized to DMSO control)” value is recorded as “* (0<Y<=25%)”. Moreover, the DC50 (read-out: DC50) is below 100 nM.

Take `CCc1cc(N2C(=S)N(c3cnc(C#N)c(C(F)(F)F)c3)C(=O)C2(C)C)ccc1OCC[C@H]1CCN(CC(=O)Nc2cc(NC3CCC(=O)NC3=O)ccc2F)[C@H](C)C1` (stereo partly drawn) [Cmpd 77, 2-((2R,4S)-4-(2-(4-(3-(6-cyano-5-(trifluoromethyl)pyridin-3-yl)-5,5-dimethyl-4-oxo-2-thioxoimidazolidin-1-yl)-2-ethylphenoxy)ethyl)-2-methylpiperidin-1-yl)-N-(5-(2,6-dioxopiperidin-3-ylamino)-2-fluorophenyl)acetamide]: the “Y (lowest measured AR level normalized to DMSO control)” value is reported as “* (0<Y<=25%)”. For the setting “read-out: DC50”, the DC50 is 100 to 500 nM.

`CCc1cc(N2C(=S)N(c3cnc(C#N)c(C(F)(F)F)c3)C(=O)C2(C)C)ccc1OCC[C@@H]1CCN(CC(=O)Nc2cccc(NC3CCC(=O)NC3=O)c2)[C@H](C)C1` (stereo partly drawn) [Cmpd 78, 2-((2R,4R)-4-(2-(4-(3-(6-cyano-5-(trifluoromethyl)pyridin-3-yl)-5,5-dimethyl-4-oxo-2-thioxoimidazolidin-1-yl)-2-ethylphenoxy)ethyl)-2-methylpiperidin-1-yl)-N-(3-(2,6-dioxopiperidin-3-ylamino)phenyl)acetamide]: the “Y (lowest measured AR level normalized to DMSO control)” value is listed as “* (0<Y<=25%)”. Also, the DC50 (read-out: DC50) was below 100 nM.

One may read the DC50 as the concentration at which degradation of the target reaches its halfway point.
